In patent US4988681A, “Phosphinic acid derivatives” (Banyu Pharmaceutical Co., Ltd., priority 1988, dated 1991):
Read-outs that look alike come from different tables or passages of the source. Blank lines part the entries; values can stand above or below the molecule they belong to.

Assays:
[1] = biological target: T1, porcine kidney dehydropeptidase I (Sus scrofa, UniProt P22412); test: Inhibitory activity on porcine kidney dehydropeptidase I (DHP-I); format: biochemical
T1 construct: Frozen porcine kidney cortex was homogenized; from tissue; host or cells: porcine kidney cortex
T1 sequence (P22412 17-409): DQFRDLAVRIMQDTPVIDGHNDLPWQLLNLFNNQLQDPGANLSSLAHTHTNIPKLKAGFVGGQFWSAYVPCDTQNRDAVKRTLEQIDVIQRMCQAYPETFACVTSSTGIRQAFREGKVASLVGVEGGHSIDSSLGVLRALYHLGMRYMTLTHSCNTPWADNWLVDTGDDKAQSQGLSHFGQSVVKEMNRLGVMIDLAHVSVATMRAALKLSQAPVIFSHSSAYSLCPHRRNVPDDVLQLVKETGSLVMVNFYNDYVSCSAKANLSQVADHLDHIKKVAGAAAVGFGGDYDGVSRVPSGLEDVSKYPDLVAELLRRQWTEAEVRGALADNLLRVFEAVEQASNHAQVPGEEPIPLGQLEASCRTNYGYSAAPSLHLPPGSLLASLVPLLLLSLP
Method: (1) Inhibitory activity on porcine kidney dehydropeptidase I
(i) Purification of porcine dehydropeptidase I
Frozen porcine kidney cortex was homogenized. Butanol (1/4 volume) pre-cooled in a dry ice-acetone bath was added to the homogenate, and the mixture was stirred at 4° C. for 43 hours. The mixture was then dialyzed for one day and centrifuged at 3,000 g for 30 minutes. To the resulting supernatant was added ammonium sulfate. A precipitate at the salt concentration range between 50 and 75% was collected to give a crude enzyme preparation which was re-dissolved in a 50 mM MOPS buffer containing 0.5 M NaCl. The solution was charged on a cilastatin affinity column. Elution with a 50 mM MOPS buffer containing 0.5 M NaCN gave a purified enzyme preparation.
(ii) Measurement of inhibitory activity
The resulting enzyme preparation (3 mU) and an inhibitor were pre-incubatedat 37° C. for 3 hours in 2.7 ml of a 50 mM MOPS buffer (pH 7.4), and then 2.475 ml of the mixture was transferred into a cuvette. As a substrate, 25 microliters of a 5 mM glycyldehydrophenylalanine solution in a 50 mM MOPS buffer (pH 7.4) was added to start an enzymic reaction. The reaction was carried out at 37° C. in a spectrophotometer fitted with a constant-emperature device, and a decrease of the absorbance at 275 nm during a period of 5 minutes was measured. […] An IC50 value was calculated from the percent inhibition data.
One unit (U) is defined as the amount of the enzyme which hydrolyzes 1 micromole of the substrate (glycyldehydrophenylalanine) per minute at a substrate concentration of 0.05 mM at 37° C. in a 50 mM MOPS buffer (pH 7.4).

[2] = Pharmacokinetic evaluation: plasma concentration in rats; format: in vivo, Male SD rats; conditions: plasma, rat; for AUC: trapezoidal rule; for concentration at 0.5 h: 1/2 h; for concentration at 0.25 h: 1/4 h; for concentration at 5 min: 1/12 h
Method: (4) Pharmacokinetic evaluations
Male SD rats ([…]) were divided into groups each consisting of three animals. […] Furthermore, cilastatin was intravenously administered to a 14th group as a control group.
Plasma samples were taken periodically from the carotid artery through a cannula inserted into it at the points of 1/12, 1/4, 1/2, 1, 2, 4, 6, 8 and 24 hours after the administration.
The area under the curve (AUC) of the plasma concentration was determined according to the trapezoidal rule.

[3] = substrate glycyldehydrophenylalanine, pH 7.4, 37° C., 3 h pre-incubation, read-out: Concentration producing 50% inhibition (IC50)
[4] = iv 10 mg/kg (cilastatin dose not given)
[5] = iv 10 mg/kg (cilastatin dose not given), N.D.: below the detection limit

IC50 [1, 3]: 48 nM
AUC [2, 4]: 17900 ng·h/mL
concentration at 0.5 h [2, 4]: 13900 ng/mL
concentration at 0.25 h [2, 4]: 21000 ng/mL
concentration at 5 min [2, 4]: 28700 ng/mL
concentration at 1 h [2, 5]: 4200 ng/mL
concentration at 2 h ([2]; iv 10 mg/kg): 900 ng/mL
concentration at 4 h ([2]; iv 10 mg/kg): 100 ng/mL
SMILES: CC(C)CP(=O)(O)C/C(=C\CCCSC[C@H](N)C(=O)O)C(=O)O [Compound No. 23, (Z)-6-[(L)-2-amino-2-carboxyethyl]thio-2-(hydroxyisobutylphosphinoyl)methyl-2-hexenoic acid]

IC50 [1, 3]: 23 nM
SMILES: CC(C)CP(=O)(O)C/C(=C\CCCSc1ncccc1O)C(=O)O [compound 22, (Z)-6-(3-hydroxy-2-pyridyl)thio-2-(hydroxyisobutylphosphinoyl)methyl-2-hexenoic acid]

IC50 [1, 3]: 31 nM
SMILES: COC(=O)CSCCCCC/C=C(\CP(=O)(O)CC(C)C)C(=O)O [compound 21, (Z)-2-(hydroxyisobutylphosphinoyl)methyl-8-methoxycarbonylmethylthio-2-octenoic acid]

IC50 [1, 3]: 8.2 nM
AUC [2, 4]: 88200 ng·h/mL
AUC ([2]; po 10 mg/kg): 22500 ng·h/mL
concentration at 0.5 h [2, 4]: 36200 ng/mL
concentration at 0.25 h [2, 4]: 49400 ng/mL
concentration at 5 min [2, 4]: 51900 ng/mL
concentration at 1 h [2, 5]: 24400 ng/mL
concentration at 2 h ([2]; iv 10 mg/kg): 11900 ng/mL
concentration at 4 h ([2]; iv 10 mg/kg): 4700 ng/mL
concentration at 6 h ([2]; iv 10 mg/kg, N.D.: below the detection limit): 1700 ng/mL
concentration at 8 h ([2]; iv 10 mg/kg): 900 ng/mL
concentration at 24 h ([2]; iv 10 mg/kg, 24 h, N.D.: below the detection limit): 100 ng/mL
concentration at 0.5 h ([2]; po 10 mg/kg): 6400 ng/mL
concentration at 0.25 h ([2]; po 10 mg/kg): 4700 ng/mL
concentration at 5 min ([2]; po 10 mg/kg): 2500 ng/mL
concentration at 1 h ([2]; po 10 mg/kg): 5300 ng/mL
concentration at 2 h ([2]; po 10 mg/kg): 3400 ng/mL
concentration at 4 h ([2]; po 10 mg/kg): 2400 ng/mL
concentration at 6 h ([2]; po 10 mg/kg): 1100 ng/mL
concentration at 8 h ([2]; po 10 mg/kg, N.D.: below the detection limit): 300 ng/mL
SMILES: CC1(C)CC1P(=O)(O)C/C(=C\C1CCCCC1)C(=O)O (stereo not drawn) [Compound No. 5, (Z)-3-cyclohexyl-2-(2,2-dimethylcyclopropylhydroxyphosphinoyl)methylpropenoic acid]

IC50 [1, 3]: 64 nM
SMILES: CC(C)CP(=O)(O)C/C(=C\CCCSCCO)C(=O)O [compound 31, (Z)-6-(2-hydroxyethyl)thio-2-(hydroxyisobutylphosphinoyl)methyl-2-hexenoic acid]

IC50 [1, 3]: 16 nM
SMILES: CC(C)/C=C(\CP(=O)(O)CC(C)C)C(=O)O [compound 8, (Z)-2-(hydroxyisobutylphosphinoyl)methyl-4-methyl-2-pentenoic acid]

IC50 [1, 3]: 22 nM
SMILES: CC(C)CP(=O)(O)C/C(=C\CCCCCSCC(=O)O)C(=O)O [compound 20, (Z)-8-carboxymethylthio-2-(hydroxyisobutylphosphinoyl)methyl-2-octenoic acid]

IC50 [1, 3]: 48 nM
SMILES: CC(C)CP(=O)(O)C/C(=C\CCCSc1nccn1C)C(=O)O [compound 24, (Z)-2-(hydroxyisobutylphosphinoyl)methyl-6-(1-methylimidazol-2-yl)thio-2-hexenoic acid]

IC50 [1, 3]: 60 nM
SMILES: CC(C)CP(=O)(O)C/C(=C\c1ccccc1)C(=O)O [compound 29, (Z)-2-(hydroxyisobutylphosphinoyl)methyl-3-phenylpropenoic acid]

IC50 [1, 3]: 25 nM
SMILES: CC(C)CP(=O)(O)C/C(=C\CCCSc1c[nH]nn1)C(=O)O [compound 19, (Z)-2-(hydroxyisobutylphosphinoyl)methyl-6-(1,2,3-triazol-4-yl)thio-2-hexenoic acid]

IC50 [1, 3]: 28 nM
SMILES: CCCCP(=O)(O)CC(CC1CCCCC1)C(=O)O (stereo not drawn) [compound 26, 2-(butylhydroxyphosphinoyl)methyl-3-cyclohexylpropionic acid]

IC50 [1, 3]: 19 nM
SMILES: CC(C)CP(=O)(O)C/C(=C\CCCCCSc1ncccc1O)C(=O)O [compound 25, (Z)-8-(3-hydroxy-2-pyridyl)thio-2-(hydroxyisobutylphosphinoyl)methyl-2-octenoic acid]

IC50 [1, 3]: 15 nM
SMILES: CC(C)C/C=C(\CP(=O)(O)CC(C)C)C(=O)O [compound 9, (Z)-2-(hydroxyisobutylphosphinoyl)methyl-5-methyl-2-hexenoic acid]

SMILES: C/C=C(\CP(=O)(O)CC(C)C)C(=O)O [compound 30, (Z)-2-(hydroxyisobutylphosphinoyl)methyl-2-butenoic acid]
IC50 [1]: 75 nM

IC50 [1, 3]: 41 nM
SMILES: O=C(O)/C(=C/C1CC1)CP(=O)(O)CC1CCCCC1 [compound 16, (Z)-2-(cyclohexylmethylhydroxyphosphinoyl)methyl-3-cyclopropylpropenoic acid]

IC50 [1, 3]: 44 nM
SMILES: CC(C)CP(=O)(O)C/C(=C\CCCCCCl)C(=O)O [compound 13, (Z)-8-chloro-2-(hydroxyisobutylphosphinoyl)methyl-2-octenoic acid]

IC50 [1, 3]: 46 nM
SMILES: CCCCC/C=C(\CP(=O)(O)CC(C)C)C(=O)O [compound 6, (Z)-2-(hydroxyisobutylphosphinoyl)methyl-2-octenoic acid]

IC50 [1, 3]: 51 nM
SMILES: CC(C)CP(=O)(O)C/C(=C\CCCCl)C(=O)O [compound 12, (Z)-6-chloro-2-(hydroxyisobutylphosphinoyl)methyl-2-hexenoic acid]

IC50 [1, 3]: 6.3 nM
SMILES: CC1(C)CC1P(=O)(O)C/C(=C\C1CC1)C(=O)O (stereo not drawn) [compound 15, (Z)-3-cyclopropyl-2-(2,2-dimethylcyclopropylhydroxyphosphinoyl)methylpropenoic acid]

IC50 [1, 3]: 68 nM
SMILES: CCCCCCCCCCP(=O)(O)C/C(=C\C1CCCCC1)C(=O)O [compound 4, (Z)-3-cyclohexyl-2-(decylhydroxyphosphinoyl)methylpropenoic acid]

IC50 [1, 3]: 42 nM
SMILES: CC(C)P(=O)(O)C/C(=C\C1CCCCC1)C(=O)O [compound 3, (Z)-3-cyclohexyl-2-(hydroxyisopropylphosphinoyl)methylpropenoic acid]

IC50 [1, 3]: 27 nM
SMILES: CCCCCCCCC/C=C(\CP(=O)(O)CC(C)C)C(=O)O [compound 7, (Z)-2-(hydroxyisobutylphosphinoyl)methyl-2-dodecenoic acid]

IC50 [1, 3]: 38 nM
SMILES: CCCCP(=O)(O)C/C(=C\C1CCCCC1)C(=O)O [Compound No. 1, (Z)-2-(butylhydroxyphosphinoyl)methyl-3-cyclohexylpropenoic acid]

IC50 [1, 3]: 21 nM
SMILES: CC(C)CP(=O)(O)C/C(=C\CCCSc1ccccc1)C(=O)O [compound 18, (Z)-2-(hydroxyisobutylphosphinoyl)methyl-6-phenylthio-2-hexenoic acid]

IC50 [1, 3]: 57 nM
SMILES: CC(C)CP(=O)(O)C/C(=C\CCc1ccccc1)C(=O)O [compound 11, (Z)-2-(hydroxyisobutylphosphinoyl)methyl-5-phenyl-2-pentenoic acid]
